Data as given in ChEMBL document CHEMBL1201862, “PubChem BioAssay data set” (2004).
Activity calls are given as the source filed them.

How the values were obtained:
[1] = Luminescence Cell-Based Dose Retest to Confirm Inhibitors of Cancer Stem Cells. [Related pubchem assays (depositor defined):AID2717, AID2721]; format: functional; conditions: Homo sapiens
[2] = molecular target: Heat shock protein HSP 90-alpha (Homo sapiens, UniProt P07900); format: functional, organism-based
[3] = molecular target: T1, Histone-lysine N-methyltransferase NSD2 (Homo sapiens, UniProt O96028); format: biochemical
T1 sequence (O96028 whole entry): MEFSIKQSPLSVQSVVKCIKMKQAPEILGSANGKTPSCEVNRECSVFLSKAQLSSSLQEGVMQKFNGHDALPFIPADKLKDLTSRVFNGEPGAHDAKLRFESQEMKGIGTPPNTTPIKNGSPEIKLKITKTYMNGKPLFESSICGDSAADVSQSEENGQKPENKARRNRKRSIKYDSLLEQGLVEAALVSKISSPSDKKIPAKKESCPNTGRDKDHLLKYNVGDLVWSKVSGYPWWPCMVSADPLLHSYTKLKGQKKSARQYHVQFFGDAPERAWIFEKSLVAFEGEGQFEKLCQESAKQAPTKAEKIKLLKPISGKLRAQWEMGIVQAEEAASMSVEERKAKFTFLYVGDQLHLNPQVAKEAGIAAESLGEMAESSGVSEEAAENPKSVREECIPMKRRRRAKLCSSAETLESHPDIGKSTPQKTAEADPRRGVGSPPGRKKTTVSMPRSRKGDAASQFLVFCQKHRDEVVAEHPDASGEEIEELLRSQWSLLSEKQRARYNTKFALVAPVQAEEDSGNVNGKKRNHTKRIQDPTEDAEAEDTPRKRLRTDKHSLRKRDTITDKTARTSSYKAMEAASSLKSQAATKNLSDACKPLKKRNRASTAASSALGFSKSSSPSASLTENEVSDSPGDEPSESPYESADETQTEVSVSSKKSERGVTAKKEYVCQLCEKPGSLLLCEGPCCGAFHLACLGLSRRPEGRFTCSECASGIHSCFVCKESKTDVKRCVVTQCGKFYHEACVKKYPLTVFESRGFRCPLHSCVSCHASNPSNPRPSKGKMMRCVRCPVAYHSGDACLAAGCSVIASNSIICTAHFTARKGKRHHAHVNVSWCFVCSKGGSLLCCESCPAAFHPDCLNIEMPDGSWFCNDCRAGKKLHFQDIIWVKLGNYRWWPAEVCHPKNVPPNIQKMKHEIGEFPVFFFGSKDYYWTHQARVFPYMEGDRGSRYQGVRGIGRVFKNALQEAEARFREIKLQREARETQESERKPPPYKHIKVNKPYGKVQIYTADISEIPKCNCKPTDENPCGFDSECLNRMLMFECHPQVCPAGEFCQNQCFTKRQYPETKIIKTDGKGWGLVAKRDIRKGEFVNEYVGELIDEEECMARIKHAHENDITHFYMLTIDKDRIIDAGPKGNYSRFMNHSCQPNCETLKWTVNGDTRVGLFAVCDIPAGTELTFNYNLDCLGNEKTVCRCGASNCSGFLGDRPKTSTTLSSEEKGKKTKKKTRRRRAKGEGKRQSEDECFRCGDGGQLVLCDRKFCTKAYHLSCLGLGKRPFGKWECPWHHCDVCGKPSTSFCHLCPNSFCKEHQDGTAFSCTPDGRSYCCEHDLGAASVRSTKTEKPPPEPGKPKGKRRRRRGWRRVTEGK

[4] = molecular target: T2, Polyadenylate-binding protein 1 (Homo sapiens, UniProt P11940); assay: MLLE binding blockers, Cy5 peptide tracer – biochemical, fluorescence polarization, Cy5-PAM2 peptide, secondary, miRNA deadenylation inhibitor project, dose response (AID 602260); format: functional; conditions: read-out: IC50_Mean
[5] = molecular target: T2, Polyadenylate-binding protein 1; assay: MLLE domain peptide-binding blockers, IC50 – biochemical, fluorescence polarization, FITC-PAM2 peptide, dose response (AID 602259); format: functional; conditions: read-out: IC50_Mean
[6] = reduction of Shn3 3'UTR-driven luciferase in osteoblasts – cell-based, Clone20 osteoblasts, firefly luciferase, cherry-picked, dose response (AID 624132); format: functional;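 also: firefly luciferase luminescence from reporter carrying the Shn3 3'UTR in osteoblasts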
[7] = NIH-3T3 fibroblast cytotoxicity, dose response, cytotoxicity control, cell-based, fluorescence, Alamar Blue, secondary assay (AID 2327); format: functional;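 also: NIH-3T3 mouse fibroblasts cultured with fluconazole at 8 µg/mL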
[8] = test system: Streptococcus sp. 'group A'; assay: Streptococcus pyogenes SK(-)GAS viability under kanamycin – luminescence, BacTiterGlo, confirmation, counter-screen for streptokinase expression inhibitor project, dose response (AID 1900); format: functional, organism-based
cells [9] = format: functional, cell-based
[10] = Luminescence Cell-Based Dose Response HTS to Identify Inhibitors of 5'UTR Stem-Loop Driven Prion Protein mRNA Translation in H4 Neuroglioblastoma Cells. [Related pubchem assays: 1827 (Project Summary), 1813 (Primary HTS)]; format: functional
[11] = alpha-synuclein stem-loop luciferase translation blockers – H4 neuroglioma cells, luminescence, confirmation (AID 1988); format: functional, cell-based
[12] = fluconazole-exposed Candida albicans growth modulators – fluorescence, retest, confirmation (AID 2467); format: functional, cell-based
cells [13] = format: functional, cell-based; remark: listed apart in the source
Streptococcus = assay: GAS UMAA2166 growth inhibition – luminescence, BacTiterGlo, counter-screen for streptokinase expression inhibitor project, dose response (AID 1915); format: functional, organism-based;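 also: potency for reduction of bacterial viability or growth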
HEK293 = assay: EBV LMP1 TES2 canonical NF-kB signalling blockers – cell-based, HEK293, luciferase, cherry-pick, dose response (AID 588343); format: functional; conditions: Homo sapiens
[14] = molecular target: T3, Rac GTPase-activating protein 1 (Homo sapiens, UniProt Q9H0H5); assay: blockers of MgcRacGAP-driven Rac1 GTP hydrolysis – biochemical, ADP Hunter fluorescence, primary and confirmatory, confirmation (AID 624330); format: functional
T3 sequence (Q9H0H5 whole entry): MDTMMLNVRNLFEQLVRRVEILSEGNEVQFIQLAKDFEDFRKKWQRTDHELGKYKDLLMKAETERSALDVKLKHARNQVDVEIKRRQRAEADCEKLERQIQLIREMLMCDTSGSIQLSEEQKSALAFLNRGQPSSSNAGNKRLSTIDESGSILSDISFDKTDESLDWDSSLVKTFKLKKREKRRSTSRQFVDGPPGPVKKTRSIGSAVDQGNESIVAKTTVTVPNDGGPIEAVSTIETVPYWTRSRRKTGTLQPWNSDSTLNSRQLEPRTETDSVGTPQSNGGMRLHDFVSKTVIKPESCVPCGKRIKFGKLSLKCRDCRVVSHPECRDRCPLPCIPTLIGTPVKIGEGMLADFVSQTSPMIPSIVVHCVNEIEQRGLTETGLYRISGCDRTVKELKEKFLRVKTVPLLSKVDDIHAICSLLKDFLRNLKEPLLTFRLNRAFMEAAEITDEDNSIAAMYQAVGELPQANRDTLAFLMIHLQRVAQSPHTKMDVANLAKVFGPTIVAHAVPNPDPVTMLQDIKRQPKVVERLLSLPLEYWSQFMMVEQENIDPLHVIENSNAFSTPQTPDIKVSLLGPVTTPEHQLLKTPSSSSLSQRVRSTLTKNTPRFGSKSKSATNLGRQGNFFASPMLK

[15] = molecular target: T4, DNA repair protein RAD52 homolog (Homo sapiens, UniProt P43351); format: functional, biochemical
T4 sequence (P43351 whole entry): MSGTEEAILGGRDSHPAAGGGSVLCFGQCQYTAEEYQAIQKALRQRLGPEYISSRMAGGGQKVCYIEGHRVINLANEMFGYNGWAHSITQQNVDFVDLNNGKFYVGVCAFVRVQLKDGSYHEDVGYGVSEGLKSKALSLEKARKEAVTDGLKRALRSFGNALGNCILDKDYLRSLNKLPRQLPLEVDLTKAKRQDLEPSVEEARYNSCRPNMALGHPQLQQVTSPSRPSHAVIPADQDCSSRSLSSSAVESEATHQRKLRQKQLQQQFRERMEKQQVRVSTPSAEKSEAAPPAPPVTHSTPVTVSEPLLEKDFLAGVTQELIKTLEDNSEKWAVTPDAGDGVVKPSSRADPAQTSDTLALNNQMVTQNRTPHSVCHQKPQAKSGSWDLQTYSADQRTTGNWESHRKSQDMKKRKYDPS

[16] = molecular target: T5, Heat shock factor protein 1 (Mus musculus, UniProt P38532); assay: decrease of HSF1-responsive luciferase luminescence – cell-based, NIH3T3, dose retest, confirmation (AID 2382); format: functional;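 also: NIH3T3 fibroblasts with HSF1-driven luciferase reporter stressed by proteasome inhibitor MG132; luminescence from HSF1-driven luciferase expression after 8 hours of MG132 stress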
T5 sequence (P38532 whole entry): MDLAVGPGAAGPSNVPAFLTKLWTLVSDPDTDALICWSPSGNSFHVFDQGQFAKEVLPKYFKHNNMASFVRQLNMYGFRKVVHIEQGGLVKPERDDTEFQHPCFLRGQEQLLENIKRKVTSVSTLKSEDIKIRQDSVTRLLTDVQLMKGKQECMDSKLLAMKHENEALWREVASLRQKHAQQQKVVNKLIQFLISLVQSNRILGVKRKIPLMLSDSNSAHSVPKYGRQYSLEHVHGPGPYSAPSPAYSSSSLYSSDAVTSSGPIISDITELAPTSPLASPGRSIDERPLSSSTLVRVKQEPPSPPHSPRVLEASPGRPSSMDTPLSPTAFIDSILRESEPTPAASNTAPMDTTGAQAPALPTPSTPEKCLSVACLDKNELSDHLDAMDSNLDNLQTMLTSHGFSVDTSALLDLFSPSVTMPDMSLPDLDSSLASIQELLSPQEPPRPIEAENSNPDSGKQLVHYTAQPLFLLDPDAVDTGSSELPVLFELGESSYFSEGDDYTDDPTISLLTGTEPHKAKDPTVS

Large T antigen = Large T antigen (Simian virus 40, UniProt P03070); format: functional, Betapolyomavirus macacae;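 also: Confirmatory-stage PubChem screen for compounds that inhibit SV40 T antigen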
[17] = molecular target: T6, RNA-binding protein pos-1 (Caenorhabditis elegans, UniProt G5EF15); assay: disruptors of C. elegans POS-1 RNA interaction – biochemical, fluorescence polarization, dose response (AID 1964);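 also: purified POS-1 fused to maltose binding protein made in E. coli; potency of compounds blocking POS-1 binding to fluorescent RNA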
T6 sequence (G5EF15 whole entry): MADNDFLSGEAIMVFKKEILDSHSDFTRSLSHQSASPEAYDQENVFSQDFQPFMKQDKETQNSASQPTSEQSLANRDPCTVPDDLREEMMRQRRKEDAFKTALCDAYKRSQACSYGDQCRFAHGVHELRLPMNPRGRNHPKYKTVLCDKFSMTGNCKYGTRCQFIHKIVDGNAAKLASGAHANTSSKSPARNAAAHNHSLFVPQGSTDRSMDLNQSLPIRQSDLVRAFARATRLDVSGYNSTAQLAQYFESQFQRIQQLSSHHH

[18] = molecular target: T7, Zinc finger protein mex-5 (Caenorhabditis elegans, UniProt Q9XUB2); assay: potency of MEX-5 RNA-binding blockers – biochemical, C. elegans, fluorescence polarization, dose response (AID 1960)
T7 sequence (Q9XUB2 whole entry): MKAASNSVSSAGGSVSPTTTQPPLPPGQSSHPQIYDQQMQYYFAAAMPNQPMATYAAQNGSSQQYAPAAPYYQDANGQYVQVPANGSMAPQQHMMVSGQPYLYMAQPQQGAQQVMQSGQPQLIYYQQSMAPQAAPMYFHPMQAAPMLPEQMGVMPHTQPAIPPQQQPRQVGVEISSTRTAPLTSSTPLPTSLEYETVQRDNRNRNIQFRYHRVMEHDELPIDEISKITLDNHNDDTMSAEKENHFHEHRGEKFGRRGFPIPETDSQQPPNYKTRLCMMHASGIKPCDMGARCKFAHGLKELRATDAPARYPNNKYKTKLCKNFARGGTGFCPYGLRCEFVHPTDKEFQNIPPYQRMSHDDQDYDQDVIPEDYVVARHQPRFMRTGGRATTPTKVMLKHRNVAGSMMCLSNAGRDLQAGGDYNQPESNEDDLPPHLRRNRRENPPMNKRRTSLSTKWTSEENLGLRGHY

T2 sequence (P11940 whole entry, the tested form may be a part): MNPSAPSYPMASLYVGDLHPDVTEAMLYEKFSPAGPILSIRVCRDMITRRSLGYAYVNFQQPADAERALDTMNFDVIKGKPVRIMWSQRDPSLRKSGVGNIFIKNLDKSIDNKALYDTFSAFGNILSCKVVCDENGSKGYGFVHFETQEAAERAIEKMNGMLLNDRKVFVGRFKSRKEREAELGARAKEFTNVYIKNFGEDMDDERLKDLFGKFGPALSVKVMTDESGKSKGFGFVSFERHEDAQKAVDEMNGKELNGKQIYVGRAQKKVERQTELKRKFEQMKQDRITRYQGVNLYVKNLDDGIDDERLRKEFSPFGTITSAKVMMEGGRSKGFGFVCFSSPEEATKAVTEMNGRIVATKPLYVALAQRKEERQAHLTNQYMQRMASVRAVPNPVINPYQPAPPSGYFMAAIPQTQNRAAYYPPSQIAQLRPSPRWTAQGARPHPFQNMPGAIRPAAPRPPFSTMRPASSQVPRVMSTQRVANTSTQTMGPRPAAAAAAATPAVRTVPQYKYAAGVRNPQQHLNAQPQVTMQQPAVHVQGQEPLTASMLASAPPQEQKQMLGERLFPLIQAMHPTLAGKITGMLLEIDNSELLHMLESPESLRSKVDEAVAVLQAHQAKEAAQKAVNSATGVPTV
Chain of Large T antigen (P03070 whole entry, the tested form may be a part): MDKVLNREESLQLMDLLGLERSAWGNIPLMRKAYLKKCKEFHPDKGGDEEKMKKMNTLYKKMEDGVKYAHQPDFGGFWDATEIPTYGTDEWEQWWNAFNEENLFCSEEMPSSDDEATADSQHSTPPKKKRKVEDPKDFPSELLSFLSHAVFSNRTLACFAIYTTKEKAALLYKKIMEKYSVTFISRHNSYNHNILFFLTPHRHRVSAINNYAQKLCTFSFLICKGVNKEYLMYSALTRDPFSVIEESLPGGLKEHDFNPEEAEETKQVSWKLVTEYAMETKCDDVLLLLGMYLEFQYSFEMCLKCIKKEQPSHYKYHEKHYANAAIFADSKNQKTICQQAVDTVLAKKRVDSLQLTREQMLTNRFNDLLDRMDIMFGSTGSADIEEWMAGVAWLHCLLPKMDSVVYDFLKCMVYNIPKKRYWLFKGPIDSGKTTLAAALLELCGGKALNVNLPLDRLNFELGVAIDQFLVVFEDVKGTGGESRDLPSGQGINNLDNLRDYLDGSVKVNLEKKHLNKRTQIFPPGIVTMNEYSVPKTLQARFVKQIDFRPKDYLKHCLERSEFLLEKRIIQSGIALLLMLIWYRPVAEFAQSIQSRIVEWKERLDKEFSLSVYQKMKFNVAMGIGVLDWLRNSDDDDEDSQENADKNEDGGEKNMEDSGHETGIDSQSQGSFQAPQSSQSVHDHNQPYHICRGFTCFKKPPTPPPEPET

Cc1cccc(C)c1N=Nc1c(C)cc(O)cc1C
AC50 [1]: 5.46 µM (active)
AC50 [2]: 8.38 µM (active)
AC50 [3]: > 20 µM (inactive)

CCCCCOC(=O)c1c(N)n(CCOC)c2nc3ccccc3nc12
AC50 [3]: 15.7 µM (active)

Cc1ccc(S(=O)(=O)N2CCCCC2)cc1NC(=S)NC(=O)c1ccco1
IC50 [4]: > 66 µM (inactive)
IC50 [5]: > 66 µM (inactive)

O=C(Cc1ccc(Br)cc1)N1CCN(c2ccccn2)CC1
IC50 [4]: > 66 µM (inactive)
IC50 [5]: > 66 µM (inactive)

COc1cccc(NC(=O)CN(C)C(=O)CSC(=S)N2CCCC2)c1
IC50 [4]: > 66 µM (inactive)
IC50 [5]: > 66 µM (inactive)

c1ccc(P(c2ccccn2)c2ccccn2)cc1
IC50 [4]: > 66 µM (inactive)
IC50 [5]: > 66 µM (inactive)

O=C(CSc1nc2c(c(=O)n1-c1ccc(Br)cc1)SCC2)NCc1ccco1
AC50 [6]: 43 µM (active)

COc1ccc(C(=O)NC(=S)NCc2cccnc2)cc1[N+](=O)[O-]
IC50 [4]: > 66 µM (inactive)
IC50 [5]: > 66 µM (inactive)

O=C(Oc1ccccc1)c1cc(O)c(O)c(O)c1
AC50 [3]: 4.01 µM (active)

O=C(/C=C/c1ccco1)Oc1cc(Br)cc(/C=N/NC(=O)c2ccccc2O)c1
EC50 [7]: > 160 µM (inactive)
EC50 [8]: 5.69 µM (active)
EC50 (cells [9]): 8.58 µM (active)
EC50 [10]: 7.54 µM (active)
EC50 [11]: 2.62 µM (active)
EC50 [12]: 1.49 µM (active)
EC50 (cells [13]): 15.2 µM (active)
EC50 (Streptococcus): 5.62 µM (active)
AC50 (HEK293): 5.21 µM (active)

Nc1ccc(Nc2ccncc2)cc1
IC50 [14]: 247 µM (active)
AC50 [15]: 16.9 µM (active)

CCc1c(C2CC2)ncn1Cc1cccc(-c2ccccc2)c1
AC50 [15]: 24.5 µM (active)

Cc1cc(N/N=C/c2ccc(O)cc2)c2cccc(C)c2n1
AC50 [15]: 2.56 µM (active)

COc1cc(/C=N/N=C2/C(=O)Nc3ccccc32)cc(OC)c1O
EC50 [16]: > 195 µM (not active)
IC50 (Large T antigen): 12.4 µM (active)
IC50 [14]: 50.9 µM (active)
AC50 [3]: > 20 µM (inactive)

CN(C)c1ccc2nc3ccc(=[N+](C)C)cc-3sc2c1 [METHYLENE BLUE ANHYDROUS]
EC50 [17]: 187 µM (active)
EC50 [18]: 114 µM (active)
AC50 [15]: 0.936 µM (active)
